Data reported in patent US20100298141A1, “SUBSTITUTED PYRIDINE N-OXIDE HERBICIDES” (E. I. DU PONT DE NEMOURS AND COMPANY, priority 2007, published 2010).

What was measured:
pigweed = assay: Test C pre-/postemergence test; type: in vivo, Amaranthus retroflexus
Method in brief: (§1)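 Compounds in a non-phytotoxic solvent with surfactant applied preemergence to seeded pots and, at the same time, postemergence to plants 2–18 cm tall (1- to 4-leaf stage). Paddy tests: pots flooded to 3 cm, compound applied into the water, depth held throughout.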

wheat = assay: Test A pre-/postemergence greenhouse test; type: in vivo, Triticum aestivum; conditions: for Wheat plant response rating: 0 to 100 scale; for Plant response rating, Wheat: 0 to 100 scale where 0 is no effect and 100 is complete control
Method in brief: (§2)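 Herbicidal effect is a visual injury score given about ten days post-treatment by comparison with untreated controls. Preemergence plots received a directed spray onto sown loam–sand soil; postemergence plants, at the one- to two-leaf stage and 2–10 cm tall, were sprayed at the same time.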

bermudagrass = assay: Test C pre-/postemergence test; type: in vivo, Cynodon dactylon
Method in brief: as §1

johnsongrass = assay: Test C pre-/postemergence test; type: in vivo, Sorghum halepense
Method in brief: as §1

catchweed bedstraw = assay: Test C pre-/postemergence test; type: in vivo, Galium aparine
Method in brief: as §1

giant foxtail [1] = assay: Test A pre-/postemergence greenhouse test; type: in vivo, Setaria faberi; conditions: for Foxtail, Giant plant response rating: 0 to 100 scale; for Plant response rating, Foxtail, Giant: 0 to 100 scale where 0 is no effect and 100 is complete control
Method in brief: as §2

rice = assay: Test C flooded paddy test; type: in vivo, Oryza sativa; conditions: Flood
Method in brief: (§3)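 Test compounds are applied straight into paddy water held 3 cm above the soil surface, with that flood maintained for the whole test. After 13 to 15 days in the greenhouse, each species is scored visually relative to controls.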

velvetleaf = assay: Test A pre-/postemergence greenhouse test; type: in vivo, Abutilon theophrasti; conditions: for Velvetleaf plant response rating: 0 to 100 scale; for Plant response rating, Velvetleaf: 0 to 100 scale where 0 is no effect and 100 is complete control
Method in brief: as §2

crabgrass = assay: Test C pre-/postemergence test; type: in vivo, Digitaria sanguinalis
Method in brief: as §1

giant foxtail [2] = assay: Test C pre-/postemergence test; type: in vivo, Setaria faberii
Method in brief: as §1

soybean = assay: Test C pre-/postemergence test; type: in vivo, Glycine max
Method in brief: as §1

downy brome = assay: Test C pre-/postemergence test; type: in vivo, Bromus tectorum
Method in brief: as §1

barnyardgrass = assay: Test C flooded paddy test; type: in vivo, Echinochloa crus-galli; conditions: Flood
Method in brief: as §3

corn = assay: Test A pre-/postemergence greenhouse test; type: in vivo, Zea mays; conditions: for Corn plant response rating: 0 to 100 scale; for Plant response rating, Corn: 0 to 100 scale where 0 is no effect and 100 is complete control
Method in brief: as §2

lambsquarters = assay: Test C pre-/postemergence test; type: in vivo, Chenopodium album
Method in brief: as §1

Surinam grass = assay: Test C pre-/postemergence test; type: in vivo, Brachiaria decumbens
Method in brief: as §1

morningglory = assay: Test C pre-/postemergence test; type: in vivo, Ipomoea coccinea
Method in brief: as §1

[3] = 62 g ai/ha, Preemergence, scale 0 to 100
[4] = 125 g ai/ha, preemergence, scale 0 (no effect) to 100 (complete control)
[5] = Preemergence, 31 g ai/ha, scale 0 to 100 (0 no effect, 100 complete control)
[6] = preemergence, 250 g ai/ha, scale 0 (no effect) to 100 (complete control)
[7] = Postemergence, 125 g ai/ha, 0 is no effect, 100 is complete control
[8] = Postemergence, 500 g ai/ha, 0 is no effect, 100 is complete control
[9] = Preemergence, 125 g ai/ha, 0 no effect, 100 complete control
[10] = 31 g ai/ha, scale 0 to 100 (0 no effect, 100 complete control)
[11] = 62 g ai/ha, scale 0 to 100, 0 no effect, 100 complete control, 13 to 15 days
[12] = 125 g ai/ha, scale 0 to 100, 0 no effect, 100 complete control, 13 to 15 days
[13] = 250 g ai/ha, scale 0 to 100, 0 no effect, 100 complete control, 13 to 15 days
[14] = 31 g ai/ha, Preemergence, scale 0 to 100
[15] = 62 g ai/ha, preemergence, scale 0 (no effect) to 100 (complete control)
[16] = preemergence, 125 g ai/ha, scale 0 (no effect) to 100 (complete control)
[17] = 250 g ai/ha, scale 0 to 100 (0 no effect, 100 complete control)

Compound: Cn1nc(C(F)(F)F)c(C[S+]([O-])c2cc(Br)cc[n+]2[O-])c1Cl (racemic) [Compound 35]
- Pigweed plant response rating (pigweed; [3]): 100
- Pigweed plant response rating (pigweed; [4]): 100
- Plant response rating, Pigweed (pigweed; [5]): 100
- Pigweed plant response rating (pigweed; [6]): 100
- Wheat plant response rating (wheat; [7]): 40
- Wheat plant response rating (wheat; [8]): 50
- Wheat plant response rating (wheat; [9]): 30
- Plant response rating, Wheat (wheat; Preemergence, 500 g ai/ha): 50
- Bermudagrass plant response rating (bermudagrass; 62 g ai/ha, Preemergence, scale 0 to 100 (0 no effect, 100 complete control)): 100
- Bermudagrass plant response rating (bermudagrass; [4]): 100
- Plant response rating, Bermudagrass (bermudagrass; [5]): 90
- Bermudagrass plant response rating (bermudagrass; [6]): 100
- Johnsongrass plant response rating (johnsongrass; [3]): 90
- Johnsongrass plant response rating (johnsongrass; [4]): 100
- Plant response rating, Johnsongrass (johnsongrass; [5]): 50
- Johnsongrass plant response rating (johnsongrass; [6]): 100
- Galium plant response rating (catchweed bedstraw; [3]): 100
- Galium plant response rating (catchweed bedstraw; [4]): 100
- Plant response rating, Galium (catchweed bedstraw; [5]): 0
- Galium plant response rating (catchweed bedstraw; [6]): 100
- Foxtail, Giant plant response rating (giant foxtail [1]; [7]): 50
- Foxtail, Giant plant response rating (giant foxtail [1]; [8]): 80
- Foxtail, Giant plant response rating (giant foxtail [1]; [9]): 100
- Plant response rating, Foxtail, Giant (giant foxtail [1]; Preemergence, 500 g ai/ha): 100
- Plant response rating, Rice (rice; [10]): 0
- Plant response rating, Rice (rice; [11]): 0
- Plant response rating, Rice (rice; [12]): 0
- Plant response rating, Rice (rice; [13]): 20
- Velvetleaf plant response rating (velvetleaf; [7]): 50
- Velvetleaf plant response rating (velvetleaf; [8]): 60
- Velvetleaf plant response rating (velvetleaf; [9]): 30
- Plant response rating, Velvetleaf (velvetleaf; Preemergence, 500 g ai/ha): 90
- Crabgrass, Large plant response rating (crabgrass; [3]): 100
- Crabgrass, Large plant response rating (crabgrass; [4]): 100
- Plant response rating, Crabgrass, Large (crabgrass; [5]): 85
- Crabgrass, Large plant response rating (crabgrass; [6]): 100
- Foxtail, Giant plant response rating (giant foxtail [2]; [3]): 60
- Foxtail, Giant plant response rating (giant foxtail [2]; [4]): 75
- Plant response rating, Foxtail, Giant (giant foxtail [2]; [5]): 40
- Foxtail, Giant plant response rating (giant foxtail [2]; [6]): 98
- Soybean plant response rating (soybean; [3]): 0
- Soybean plant response rating (soybean; [4]): 10
- Plant response rating, Soybean (soybean; [5]): 0
- Soybean plant response rating (soybean; [6]): 60
- Bromegrass, Downy plant response rating (downy brome; [3]): 0
- Bromegrass, Downy plant response rating (downy brome; [4]): 0
- Plant response rating, Bromegrass, Downy (downy brome; [5]): 0
- Bromegrass, Downy plant response rating (downy brome; [6]): 30
- Plant response rating, Barnyardgrass (barnyardgrass; [10]): 0
- Plant response rating, Barnyardgrass (barnyardgrass; [11]): 0
- Plant response rating, Barnyardgrass (barnyardgrass; [12]): 20
- Plant response rating, Barnyardgrass (barnyardgrass; [13]): 40
- Corn plant response rating (corn; [7]): 0
- Corn plant response rating (corn; [8]): 30
- Corn plant response rating (corn; [9]): 0
- Plant response rating, Corn (corn; Preemergence, 500 g ai/ha): 0
- Lambsquarters plant response rating (lambsquarters; [3]): 100
- Lambsquarters plant response rating (lambsquarters; [4]): 100
- Plant response rating, Lambsquarters (lambsquarters; [5]): 100
- Lambsquarters plant response rating (lambsquarters; [6]): 100
- Surinam Grass plant response rating (Surinam grass; [3]): 55
- Surinam Grass plant response rating (Surinam grass; [4]): 100
- Plant response rating, Surinam Grass (Surinam grass; [5]): 30
- Surinam Grass plant response rating (Surinam grass; [6]): 100
- Morningglory plant response rating (morningglory; [3]): 0
- Morningglory plant response rating (morningglory; [4]): 80
- Plant response rating, Morningglory (morningglory; [5]): 0
- Morningglory plant response rating (morningglory; [6]): 85

Compound: Cn1nc(C(F)(F)F)c(C[S+]([O-])c2cccc[n+]2[O-])c1Cl (centres unmarked) [Compound 8]
- Pigweed plant response rating (pigweed; [14]): 85
- Pigweed plant response rating (pigweed; [15]): 100
- Plant response rating (0 to 100), Pigweed (pigweed; Preemergence, 250 g ai/ha): 100
- Pigweed plant response rating (pigweed; [16]): 100
- Wheat plant response rating (wheat; [7]): 30
- Wheat plant response rating (wheat; [8]): 60
- Wheat plant response rating (wheat; [9]): 60
- Plant response rating, Wheat (wheat; Preemergence, 500 g ai/ha): 70
- Bermudagrass plant response rating (bermudagrass; [14]): 80
- Bermudagrass plant response rating (bermudagrass; [15]): 100
- Plant response rating (0 to 100), Bermudagrass (bermudagrass; Preemergence, 250 g ai/ha): 100
- Bermudagrass plant response rating (bermudagrass; [16]): 100
- Johnsongrass plant response rating (johnsongrass; [14]): 80
- Johnsongrass plant response rating (johnsongrass; [15]): 85
- Plant response rating (0 to 100), Johnsongrass (johnsongrass; Preemergence, 250 g ai/ha): 100
- Johnsongrass plant response rating (johnsongrass; [16]): 85
- Galium plant response rating (catchweed bedstraw; [14]): 0
- Galium plant response rating (catchweed bedstraw; [15]): 100
- Galium plant response rating (catchweed bedstraw; [16]): 100
- Foxtail, Giant plant response rating (giant foxtail [1]; [7]): 80
- Foxtail, Giant plant response rating (giant foxtail [1]; [8]): 90
- Foxtail, Giant plant response rating (giant foxtail [1]; [9]): 100
- Plant response rating, Foxtail, Giant (giant foxtail [1]; Preemergence, 500 g ai/ha): 100
- Plant response rating, Rice (rice; [10]): 0
- Plant response rating, Rice (rice; [11]): 0
- Plant response rating, Rice (rice; [12]): 0
- Plant response rating, Rice (rice; [17]): 20
- Velvetleaf plant response rating (velvetleaf; [7]): 40
- Velvetleaf plant response rating (velvetleaf; [8]): 70
- Velvetleaf plant response rating (velvetleaf; [9]): 70
- Plant response rating, Velvetleaf (velvetleaf; Preemergence, 500 g ai/ha): 80
- Crabgrass, Large plant response rating (crabgrass; [14]): 90
- Crabgrass, Large plant response rating (crabgrass; [15]): 100
- Plant response rating (0 to 100), Crabgrass, Large (crabgrass; Preemergence, 250 g ai/ha): 100
- Crabgrass, Large plant response rating (crabgrass; [16]): 100
- Foxtail, Giant plant response rating (giant foxtail [2]; [14]): 85
- Foxtail, Giant plant response rating (giant foxtail [2]; [15]): 98
- Plant response rating (0 to 100), Foxtail, Giant (giant foxtail [2]; Preemergence, 250 g ai/ha): 100
- Foxtail, Giant plant response rating (giant foxtail [2]; [16]): 100
- Soybean plant response rating (soybean; [14]): 0
- Soybean plant response rating (soybean; [15]): 0
- Plant response rating (0 to 100), Soybean (soybean; Preemergence, 250 g ai/ha): 90
- Soybean plant response rating (soybean; [16]): 80
- Bromegrass, Downy plant response rating (downy brome; [14]): 0
- Bromegrass, Downy plant response rating (downy brome; [15]): 0
- Plant response rating (0 to 100), Bromegrass, Downy (downy brome; Preemergence, 250 g ai/ha): 85
- Bromegrass, Downy plant response rating (downy brome; [16]): 80
- Plant response rating, Barnyardgrass (barnyardgrass; [10]): 0
- Plant response rating, Barnyardgrass (barnyardgrass; [11]): 0
- Plant response rating, Barnyardgrass (barnyardgrass; [12]): 40
- Plant response rating, Barnyardgrass (barnyardgrass; [17]): 85
- Corn plant response rating (corn; [7]): 50
- Corn plant response rating (corn; [8]): 60
- Corn plant response rating (corn; [9]): 20
- Plant response rating, Corn (corn; Preemergence, 500 g ai/ha): 70
- Lambsquarters plant response rating (lambsquarters; [14]): 80
- Lambsquarters plant response rating (lambsquarters; [15]): 98
- Plant response rating (0 to 100), Lambsquarters (lambsquarters; Preemergence, 250 g ai/ha): 100
- Lambsquarters plant response rating (lambsquarters; [16]): 100
- Surinam Grass plant response rating (Surinam grass; [15]): 85
- Plant response rating (0 to 100), Surinam Grass (Surinam grass; Preemergence, 250 g ai/ha): 100
- Surinam Grass plant response rating (Surinam grass; [16]): 100
- Morningglory plant response rating (morningglory; [14]): 5
- Morningglory plant response rating (morningglory; [15]): 90
- Plant response rating (0 to 100), Morningglory (morningglory; Preemergence, 250 g ai/ha): 100
- Morningglory plant response rating (morningglory; [16]): 100
